{
  "source": "patent US20080214606A1",
  "about": "“Methods for the Identification and Use of Compounds Suitable for the Treatment of Drug Resistant Cancer Cells” (The Government of the United States of America as …, priority 2004, published 2008)",
  "target": "ABCB1 (Homo sapiens, UniProt P08183)",
  "sequence (P08183 whole entry)": "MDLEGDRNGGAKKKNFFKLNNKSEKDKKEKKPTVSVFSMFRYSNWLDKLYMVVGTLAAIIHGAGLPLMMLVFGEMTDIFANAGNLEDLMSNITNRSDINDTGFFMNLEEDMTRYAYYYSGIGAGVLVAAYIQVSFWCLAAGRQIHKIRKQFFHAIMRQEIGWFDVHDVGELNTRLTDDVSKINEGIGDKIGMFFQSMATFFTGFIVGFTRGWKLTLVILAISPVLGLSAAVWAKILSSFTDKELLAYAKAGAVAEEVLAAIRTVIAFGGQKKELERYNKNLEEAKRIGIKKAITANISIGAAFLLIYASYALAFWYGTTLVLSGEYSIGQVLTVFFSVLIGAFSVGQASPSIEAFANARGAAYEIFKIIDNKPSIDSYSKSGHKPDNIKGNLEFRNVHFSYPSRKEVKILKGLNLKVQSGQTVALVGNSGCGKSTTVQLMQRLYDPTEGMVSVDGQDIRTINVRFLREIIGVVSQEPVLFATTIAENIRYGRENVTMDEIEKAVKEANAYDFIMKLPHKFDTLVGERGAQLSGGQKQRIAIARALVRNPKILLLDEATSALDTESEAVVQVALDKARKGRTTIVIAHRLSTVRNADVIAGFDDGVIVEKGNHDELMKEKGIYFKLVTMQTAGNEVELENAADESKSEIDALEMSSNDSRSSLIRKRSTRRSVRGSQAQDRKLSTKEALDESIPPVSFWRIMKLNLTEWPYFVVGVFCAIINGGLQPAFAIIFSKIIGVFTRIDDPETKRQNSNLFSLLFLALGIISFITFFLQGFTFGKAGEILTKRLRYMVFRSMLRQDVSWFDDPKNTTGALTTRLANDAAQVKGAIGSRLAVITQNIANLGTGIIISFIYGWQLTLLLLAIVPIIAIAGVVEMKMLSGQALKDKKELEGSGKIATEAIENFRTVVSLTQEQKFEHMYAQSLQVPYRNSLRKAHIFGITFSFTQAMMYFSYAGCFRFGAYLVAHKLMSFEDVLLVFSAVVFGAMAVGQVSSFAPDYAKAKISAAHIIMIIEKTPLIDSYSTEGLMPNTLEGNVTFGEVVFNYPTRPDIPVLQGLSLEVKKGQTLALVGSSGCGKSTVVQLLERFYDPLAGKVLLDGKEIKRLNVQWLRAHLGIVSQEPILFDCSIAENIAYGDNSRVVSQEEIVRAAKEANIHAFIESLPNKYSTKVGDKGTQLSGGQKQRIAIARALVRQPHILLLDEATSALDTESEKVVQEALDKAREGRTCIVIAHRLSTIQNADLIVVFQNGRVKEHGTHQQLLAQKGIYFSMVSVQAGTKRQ",
  "test": "Correlation of ABCB1 expression with drug sensitivity across the NCI-60",
  "description": "Expression levels are measured by real-time quantitative RT-PCR using the LightCycler RNA Amplification SYBR Green kit and a LightCycler machine (Roche Biochemicals, Indianapolis, Ind.). Specific oligonucleotide probes are designed for each of the ABC transporters using DNAStar Primer Select (DNASTAR Inc.), and they may be synthesized at Lofstrand Laboratories (Gaithersburg, Md.). When possible, the amplicons are designed to encompass exon-intron boundaries to avoid amplification of genomic DNA. Since the Syber Green assay detects accumulation of double stranded DNA, primers are selected (from a battery consisting of about 200 primers) that amplified a single product of the correct size.\nRT-PCR is carried out on 150 ng total RNA, in the presence of 250 nM specific primers. Following reverse transcription (20 min at 50° C.), the PCR reaction consists of 45 cycles of denaturation (15 sec at 95° C.), annealing (30 sec at 58° C.), and elongation (30 sec at 72° C.). No-template (water) reaction mixtures are prepared as negative controls.\nDuring PCR amplification, fluorescence emission is measured and recorded in real time by the LightCycler. Crossing point values are calculated, using the LightCycler software package, by the Fit Points analysis method, with baseline fluorescence set at 1. The SyberGreen assay measures accumulation of double-stranded products, and the appearance of primer dimers limits quantitation at high cycle numbers. […] The raw results are expressed as number of cycles to reach the crossing point. If the desired product is not detected, the corresponding value is adjusted to crossing points indicating no expression. To assess the contribution of experimental artifacts, selected cell lines are assessed in replicate.\nBoth sets are available at http://discover.nci.nih.gov. The two are combined to form a joint dataset that includes 1429 compounds.\nTo determine quantitatively how well the 47 genes cluster the cell lines by their tissues of origin, a statistical method is employed wherein the kappa statistic is used to indicate how well the observed clusters correspond to the nine tissue-of-origin classifications. […] To control the overall false type 1 error rate, both a step-down procedure (Westfall and Young, 1993, Resampling-Based Multiple Testing: Examples and Methods for p-value Adjustment (New York: Wiley)) and a step-up procedure (Reiner et al., 2003, Bioinformatics 19:368-375) were employed to adjust for multiple testing of all 47 genes simultaneously. In the Benjamini-Hochberg procedure the p-values are computed in the standard way by permutation, assuming that all distributions are exchangeable: the number of values in the permuted data with correlations over a threshold, divided by the number of compounds and by the number of permutations. In this analysis, the False Discovery Rate (q-value) at which each compound would be declared was calculated using the step-up procedure for positively correlated test statistics (again true because all correlations being compared are computed against the same ABC gene): in this procedure the first q-value for the largest correlation is the Bonferroni-corrected p-value for that gene; then further q-values are calculated as qj=max(pj*1429/j, qj-1). This procedure limits the expected proportion of false positives in the list 1, . . . , j to at most qj.",
  "data": [
    {"molecule": "COc1ccc2cc(CNCCCCCCCCNCc3ccc4cc(OC)ccc4c3)ccc2c1", "note": "[NSC676427]", "values": [
      {"measurement": "Pearson's Correlation Coeff", "value": 0.1843}
    ]},
    {"molecule": "Cc1cc(C)c(C2=NO[C@@H]3[C@H]2C(=O)C=C2N(Cc4ccccc4)CCO[C@@]23O)c(C)c1", "note": "[NSC 627025]", "values": [
      {"measurement": "Correlation of antiproliferative activity with ABCB1 expression", "value": 0.3511}
    ]},
    {"molecule": "O=C1CSc2sc(=S)sc2S1", "note": "[NSC 627451]", "values": [
      {"measurement": "Correlation of antiproliferative activity with ABCB1 expression", "value": 0.3894}
    ]},
    {"molecule": "Cc1ccc2nc3c(C(=O)NCCN(C)C)cccc3cc2c1.Cl", "note": "[NSC 617963]", "values": [
      {"measurement": "Correlation of antiproliferative activity with ABCB1 expression", "value": 0.5317}
    ]},
    {"molecule": "O=C(/C=C/c1ccccc1)CSc1nc2ccc(I)cc2c(=O)n1Cc1ccccc1", "note": "[NSC 715729]", "values": [
      {"measurement": "Correlation of antiproliferative activity with ABCB1 expression", "value": 0.3544}
    ]},
    {"molecule": "CCc1ccccc1N1CCN(C(=O)c2cc(OC)c(OC)c(OC)c2)CC1", "note": "[NSC56030]", "values": [
      {"measurement": "Pearson's Correlation Coeff", "value": 0.2372}
    ]},
    {"molecule": "O=S1(=O)CCC2=CC(C(F)(F)F)=CC(C(F)(F)F)=CN21", "note": "[NSC605440]", "values": [
      {"measurement": "Pearson's Correlation Coeff", "value": 0.2658}
    ]},
    {"molecule": "CC(C)=CCC[C@@H](C)C1=C(O)C(=O)C(C)=C(N)C1=O", "note": "[NSC697125]", "values": [
      {"measurement": "Correlation of antiproliferative activity with ABCB1 expression", "value": 0.5358},
      {"measurement": "Pearson's Correlation Coeff", "value": 0.5604}
    ]},
    {"molecule": "Cc1ccc(S(=O)(=O)O)cc1.N/C(=N\\N=C/c1cc(Br)cc(Br)c1O)NO", "note": "[NSC 371168]", "values": [
      {"measurement": "Correlation of antiproliferative activity with ABCB1 expression", "value": 0.3643}
    ]},
    {"molecule": "Cc1cc(C(=O)NCCN(C)C)c2nc3ccccc3cc2c1.Cl", "note": "[NSC 617961]", "values": [
      {"measurement": "Correlation of antiproliferative activity with ABCB1 expression", "value": 0.423}
    ]},
    {"molecule": "CC(C)=CCC[C@@H](C)C1=C(O)C(Nc2ccccc2)=C(C)C(=O)C1=O", "note": "[NSC697129]", "values": [
      {"measurement": "Correlation of antiproliferative activity with ABCB1 expression", "value": 0.4663},
      {"measurement": "Pearson's Correlation Coeff", "value": 0.4854}
    ]},
    {"molecule": "CCNc1nnc(-c2ccccc2Nc2ccccc2-c2nnc(NCC)s2)s1", "note": "[NSC698459]", "values": [
      {"measurement": "Pearson's Correlation Coeff", "value": 0.3095}
    ]},
    {"molecule": "C=C1C(=O)O[C@H]2[C@H]1[C@@H](OC(=O)C=C(C)C)CC1=C[C@@H](C[C@@]3(C)O[C@@H]23)OC1=O", "note": "[NSC102817]", "values": [
      {"measurement": "Pearson's Correlation Coeff", "value": 0.2813}
    ]},
    {"molecule": "CC[C@]1(O)C[C@@H]2CN(CCc3c([nH]c4ccccc34)[C@@](C(=O)OC)(c3cc4c(cc3OC)N(C)[C@H]3[C@@](O)(C(=O)OC)[C@H](OC(C)=O)[C@]5(CC)C=CCN6CC[C@]43[C@@H]65)C2)C1", "note": "[vinblastine, reference compound]", "values": [
      {"measurement": "Relationship between drug sensitivity and ABCB1 expression (in words)", "value": "striking inverse correlations"}
    ]},
    {"molecule": "C[n+]1c2ccccc2n2c3ccccc3c(NCCCn3ccnc3)c(C#N)c21.Cc1ccc(S(=O)(=O)[O-])cc1", "note": "[NSC694268]", "values": [
      {"measurement": "Correlation", "value": "−0.5914"}
    ]},
    {"molecule": "COc1ccc(C(=O)c2cc(OC)c(OC)c(OC)c2)cc1", "note": "[NSC638498]", "values": [
      {"measurement": "Pearson's Correlation Coeff", "value": 0.2464}
    ]},
    {"molecule": "CC(=O)O[C@H]1C#C/C=C\\C#CC[C@@H]2C(=O)N(C(=O)OC(C)(C)C)[C@@H]12", "note": "[NSC697686]", "values": [
      {"measurement": "Pearson's Correlation Coeff", "value": 0.2297}
    ]},
    {"molecule": "C[C@]12CC[C@@H]3c4cc(OCC(F)(F)F)c(O)cc4/C(=N/O)C[C@H]3[C@@H]1CC[C@@H]2O", "note": "[NSC681683]", "values": [
      {"measurement": "Pearson's Correlation Coeff", "value": 0.2079}
    ]},
    {"molecule": "CCc1nc(N)nc(N)c1-c1ccc(Cl)c(N=[N+]=[N-])c1", "note": "[NSC319947]", "values": [
      {"measurement": "Pearson's Correlation Coeff", "value": 0.3098}
    ]},
    {"molecule": "CC(=O)O[C@H]1C(=O)[C@@]2(C)[C@H]([C@H](OC(=O)c3ccccc3)[C@]3(O)C[C@H](OC(=O)[C@H](O)[C@@H](NC(=O)c4ccccc4)c4ccccc4)C(C)=C1C3(C)C)[C@]1(OC(C)=O)CO[C@@H]1C[C@@H]2O", "note": "[paclitaxel, reference compound]", "values": [
      {"measurement": "Relationship between drug sensitivity and ABCB1 expression (in words)", "value": "striking inverse correlations"}
    ]},
    {"molecule": "c1ccc(/C(=N/Nc2ccccn2)c2cccnn2)cc1", "note": "[NSC693623]", "values": [
      {"measurement": "Pearson's Correlation Coeff", "value": 0.2952}
    ]},
    {"molecule": "O=C1c2c(nc3ccccc3c2-c2ccccc2)CN1Nc1ccccn1", "note": "[NSC 648072]", "values": [
      {"measurement": "Correlation of antiproliferative activity with ABCB1 expression", "value": 0.3579}
    ]},
    {"molecule": "Cc1cc(N(CCOS(C)(=O)=O)CCOS(C)(=O)=O)ccc1C=Nc1ccc(-c2nc(Cc3ccccc3)sc2C)cc1", "note": "[NSC281817]", "values": [
      {"measurement": "Pearson's Correlation Coeff", "value": 0.2646}
    ]},
    {"molecule": "CSc1sc(=S)sc1SC", "note": "[NSC 627450]", "values": [
      {"measurement": "Correlation of antiproliferative activity with ABCB1 expression", "value": 0.4454}
    ]},
    {"molecule": "O=C(NO)c1cccc(OCc2ccc(Br)cc2)c1", "note": "[NSC692756]", "values": [
      {"measurement": "Pearson's Correlation Coeff", "value": 0.4093}
    ]},
    {"molecule": "CSc1nc2nn(Cc3ccccc3)cc2c(=O)[nH]1", "note": "[NSC 622927]", "values": [
      {"measurement": "Correlation of antiproliferative activity with ABCB1 expression", "value": 0.4001}
    ]}
  ]
}
